The record followed here is patent US20020026053A1, “Novel 3-(substituted) -2- indolinones compounds and use thereof as inhibitors of protein kinase activity” (priority 1997, published 2002).

Experiment [1] relates to FLK-1 receptor. The experiment is described as follows: FLK-1 Assay (cellular/catalytic ELISA, VEGF-stimulated phosphotyrosine). The class given is cell-based. Details: concentration or dose not given beside the values. On the procedure:
(§1) The cellular/catalytic assays described herein are performed in an ELISA format. The general procedure is as follows: a compound is introduced to cells expressing the test kinase, either naturally or recombinantly, for a selected period of time after which, if the test kinase is a receptor, a ligand known to activate the receptor is added. The cells are lysed and the lysate is transferred to the wells of an ELISA plate previously coated with a specific antibody recognizing the substrate of the enzymatic phosphorylation reaction. Non-substrate components of the cell lysate are washed away and the amount of phosphorylation on the substrate is detected with an antibody specifically recognizing phosphotyrosine compared with control cells that were not contacted with a test compound.
An ELISA assay is conducted to measure the kinase activity of the FLK-1 receptor and more specifically, the inhibition or activation of TK activity on the FLK-1 receptor. Specifically, the following assay can be conducted to measure kinase activity of the FLK-1 receptor in cells genetically engineered to express Flk-1.
a. Corning 96-well ELISA plates (Corning Catalog No. 25805-96);
b. Cappel goat anti-rabbit IgG (catalog no. 55641);
c. PBS (Gibco Catalog No. 450-1300EB);
d. TBSW Buffer (50 mM Tris (pH 7.2), 150 mM NaCl and 0.1% Tween-20);
e. Ethanolamine stock (10% ethanolamine (pH 7.0), stored at 4° C.);
f. HNTG buffer (20 mM HEPES buffer (pH 7.5), 150 mM NaCl, 0.2% Triton X-100, and 10% glycerol);
g. EDTA (0.5 M (pH 7.0) as a 100× stock);
h. Sodium orthovanadate (0.5 M as a 100× stock);
i. Sodium pyrophosphate (0.2 M as a 100× stock);
j. NUNC 96 well V bottom polypropylene plates (Applied Scientific Catalog No. AS-72092);
k. NIH3T3 C7#3 Cells (FLK-1 expressing cells);
l. DMEM with 1× high glucose L-Glutamine (catalog No. 11965-050);
n. L-glutamine, Gibco (catalog no. 25030-016);
o. VEGF, PeproTech, Inc. (catalog no. 100-20)(kept as 1 μg/100 μl stock in Milli-Q dH2O and stored at −20° C.;
p. Affinity purified anti-FLK-1 antiserum;
q. UB40 monoclonal antibody specific for phosphotyrosine (see, Fendley, et al., 1990, Cancer Research 50:1550-1558);
r. EIA grade Goat anti-mouse IgG-POD (BioRad catalog no. 172-1011);
s. 2,2-azino-bis(3-ethylbenz-thiazoline-6-sulfonic acid (ABTS) solution (100 mM citric acid (anhydrous), 250 mM Na2HPO4 (pH 4.0), 0.5 mg/ml ABTS (Sigma catalog no. A-1888)), solution should be stored in dark at 4° C. until ready for use;
t. H2O2 (30% solution) (Fisher catalog no. H325);
u. ABTS/ H2O2 (15 ml ABTS solution, 2 μl H2O2) prepared 5 minutes before use and left at room temperature;
v. 0.2 M HCl stock in H2O;
w. dimethylsulfoxide (100%) (Sigma Catalog No. D-8418); and
y. Trypsin-EDTA (Gibco BRL Catalog No. 25200-049).
1. Coat Corning 96-well ELISA plates with 1.0 μg per well Cappel Anti-rabbit IgG antibody in 0.1M Na2CO3 pH 9.6. Bring final volume to 150 μl per well. Coat plates overnight at 4° C. Plates can be kept up to two weeks when stored at 4° C.
2. Grow cells in Growth media (DMEM, supplemented with 2.0 mM L-Glutamine, 10% FBS) in suitable culture dishes until confluent at 37° C., 5% CO2.
3. Harvest cells by trypsinization and seed in Corning 25850 polystyrene 96-well round bottom cell plates, 25,000 cells/well in 200 μl of growth media.
4. Grow cells at least one day at 37° C., 5% CO2.
5. Wash cells with D-PBS 1×.
6. Add 200 μl/well of starvation media (DMEM, 2.0 mM 1-Glutamine, 0.1% FBS). Incubate overnight at 37° C., 5% CO2.
7. Dilute Compounds 1:20 in polypropylene 96 well plates using starvation media. Dilute dimethylsulfoxide 1:20 for use in control wells.
8. Remove starvation media from 96 well cell culture plates and add 162 μl of fresh starvation media to each well.
9. Add 18 μl of 1:20 diluted compound dilution (from step 7) to each well plus the 1:20 dimethylsulfoxide dilution to the control wells (+/− VEGF), for a final dilution of 1:200 after cell stimulation. Final dimethylsulfoxide is 0.5%. Incubate the plate at 37° C., 5% CO2 for two hours.
10. […]

Experiment [2] has as its system PDGF-R. In words: PDGF-R Assay (cellular ELISA, U1242 cells). Details: concentration or dose not given beside the values. The class given is cell-based. On the procedure:
as §1
All cell culture media, glutamine, and fetal bovine serum can be purchased from Gibco Life Technologies (Grand Island, N.Y.) unless otherwise specified. All cells are grown in a humid atmosphere of 90-95% air and 5-10% CO2 at 37° C. All cell lines are routinely subcultured twice a week and are negative for mycoplasma as determined by the Mycotect method (Gibco).
For ELISA assays, cells (U1242, obtained from Joseph Schlessinger, NYU) are grown to 80-90% confluency in growth medium (MEM with 10% FBS, NEAA, 1 mM NaPyr and 2 mM GLN) and seeded in 96-well tissue culture plates in 0.5% serum at 25,000 to 30,000 cells per well. After overnight incubation in 0.5% serum-containing medium, cells are changed to serum-free medium and treated with test compound for 2 hr in a 5% CO2, 37° C. incubator. Cells are then stimulated with ligand for 5-10 minute followed by lysis with HNTG (20 mM Hepes, 150 mM NaCl, 10% glycerol, 5 mM EDTA, 5 mM Na3VO4, 0.2% Triton X-100, and 2 mM NaPyr). Cell lysates (0.5 mg/well in PBS) are transferred to ELISA plates previously coated with receptor-specific antibody and which had been blocked with 5% milk in TBST (50 mM Tris-HCl pH 7.2, 150 mM NaCl and 0.1% Triton X-100) at room temperature for 30 min. Lysates are incubated with shaking for 1 hour at room temperature. The plates are washed with TBST four times and then incubated with polyclonal anti-phosphotyrosine antibody at room temperature for 30 minutes. Excess anti-phosphotyrosine antibody is removed by rinsing the plate with TBST four times. Goat anti-rabbit IgG antibody is added to the ELISA plate for 30 min at room temperature followed by rinsing with TBST four more times. ABTS (100 mM citric acid, 250 mM Na2HPO4 and 0.5 mg/mL 2,2′-azino-bis (3-ethylbenzthiazoline-6-sulfonic acid)) plus H2O2 ([…] 30% H2O2 to 10 ml ABTS) is added to the ELISA plates to start color development. Absorbance at 410 nm with a reference wavelength of 630 nm is recorded about 15 to 30 min after ABTS addition.
In general terms: An ELISA detects its analyte on a solid surface through an enzyme-linked reagent.

SMILES strings stand for the structures.

Take `Cc1c(Br)cc(Br)c2c1C(=Cc1ccc(F)cc1)C(=O)N2` [10717/H05]: the “Flk Kinase % Inhibition (P.110)” value in experiment [1] amounted to 5.0%.

Consider `Cc1c(Br)cc(Br)c2c1C(=Cc1c[nH]c3ccccc13)C(=O)N2` [10717/H06], for which, in experiment [1], the “Flk Kinase % Inhibition (P.110)” value turned out to be 12.5%. For `Cc1ccc(C=C2C(=O)Nc3c(Br)cc(Br)c(C)c32)s1` [10717/H07], the “Flk Kinase % Inhibition (P.110)” value in experiment [1] is 1.1%. Still for that read-out and setting: then `Cc1c(Br)cc(Br)c2c1C(=Cc1ccc(Br)cc1)C(=O)N2` [10717/H08], with −8.4%. For `Cc1c(Br)cc(Br)c2c1C(=Cc1ccc[nH]1)C(=O)N2` [10717/H09], the “Flk Kinase % Inhibition (P.110)” value in experiment [1] was −17.5%. As for `COc1cccc(O)c1C=C1C(=O)Nc2c(Br)cc(Br)c(C)c21` [10717/H10], the “Flk Kinase % Inhibition (P.110)” value in experiment [1] is −5.0%.

Take `Cc1[nH]c(C=C2C(=O)Nc3c(Br)cc(Br)c(C)c32)c(Br)c1Br` [10717/H11]: the “Flk Kinase % Inhibition (P.110)” value in experiment [1] is reported as −0.4%. `Cc1c(Br)cc(Br)c2c1C(=Cc1ccc(Br)o1)C(=O)N2` [10726/H05]: in experiment [1], the “Flk Kinase % Inhibition (P.110)” value is reported as −6.1%. Besides, the “PDGF Kinase % Inhibition (P.119)” value in experiment [2] is on record as −38.0%. In the case of `Cc1cn(C)cc1C=C1C(=O)Nc2c(Br)cc(Br)c(C)c21` [10726/H06], in experiment [1], the “Flk Kinase % Inhibition (P.110)” value came out at 17.5%. Further, the “PDGF Kinase % Inhibition (P.119)” value in experiment [2] is −20.9%. `Cc1c(Br)cc(Br)c2c1C(=Cc1cc(O)c3c(c1O)CCCC3)C(=O)N2` [10726/H07]: the “Flk Kinase % Inhibition (P.110)” value in experiment [1] is given as −9.5%. Besides, the “PDGF Kinase % Inhibition (P.119)” value in experiment [2] is −30.4%. The corresponding values for `Cc1c(Br)cc(Br)c2c1C(=C1C(=O)Nc3ccc(F)cc31)C(=O)N2` [10726/H08] are −15.0% and 15.1%. The corresponding values for `Cc1c(Br)cc(Br)c2c1C(=C1C(=O)Nc3ccccc31)C(=O)N2` [10726/H09] are 1.5% and 15.1%. With `CCc1ccc(C=C2C(=O)Nc3c(Br)cc(Br)c(C)c32)s1` [10726/H10], the “Flk Kinase % Inhibition (P.110)” value in experiment [1] turned out to be 11.0%. The “PDGF Kinase % Inhibition (P.119)” value in experiment [2] came to 6.9%. For `COc1ccc(C=C2C(=O)Nc3c(Br)cc(Br)c(C)c32)cc1` [10726/H11], the “Flk Kinase % Inhibition (P.110)” value in experiment [1] was 12.9%. In addition, in experiment [2], the “PDGF Kinase % Inhibition (P.119)” value is −0.1%.

Take `CCN(CC)c1ccc(C=C2C(=O)Nc3c(Br)cc(Br)c(C)c32)cc1` [10727/H02]: in experiment [1], the “Flk Kinase % Inhibition (P.110)” value is on record as −1.2%. In addition, the “PDGF Kinase % Inhibition (P.119)” value in experiment [2] is listed as −33.6%.
